One molecule from PMC5218480 (PLoS ONE, 2017) can be followed below.

The structures appear in SMILES notation.

The assay has as its system MV-4-11 cells. Description: Gene expression microarray analysis (Affymetrix PrimeView) and GSEA. It is filed as cell-based, human. More on the design: RFU PODN (11730768_x_at) / Fold change /veh PODN (11730768_x_at) / RFU LINC00158 (11744669_a_at) / Fold change /veh LINC00158 (11744669_a_at) / RFU DUSP10 (11751237_a_at) / Fold change /veh DUSP10 (11751237_a_at) / RFU ID3 (11757404_x_at) / Fold change /veh ID3 (11757404_x_at) / RFU PLEKHG5 (11737974_s_at) / Fold change /veh PLEKHG5 (11737974_s_at) / RFU LRRC4B (11730491_at) / Fold change /veh LRRC4B (11730491_at) / RFU GIMAP4 (11747438_a_at) / Fold change /veh GIMAP4 (11747438_a_at) / RFU KRT8 (11758183_x_at) / Fold change /veh KRT8 (11758183_x_at) / RFU CNN1 (11734310_a_at) / Fold change /veh CNN1 (11734310_a_at) / RFU VPS37D (11726825_at) / Fold change /veh VPS37D (11726825_at) / RFU C10orf10 (11716522_x_at) / Fold change /veh C10orf10 (11716522_x_at) / RFU KIR2DL2 /// KIR2DL4 /// KIR2DL5A /// KIR2DL5B /// KIR2DS1 /// KIR2DS2 /// KIR2DS3 /// KIR2DS4 /// KIR3DL3 /// KIR3DL3 /// KIR3DS1 (11738374_at) / Fold change /veh KIR2DL2 /// KIR2DL4 /// KIR2DL5A /// KIR2DL5B /// KIR2DS1 /// KIR2DS2 /// KIR2DS3 /// KIR2DS4 /// KIR3DL3 /// KIR3DL3 /// KIR3DS1 (11738374_at) / RFU C1QL1 (11718748_at) / Fold change /veh C1QL1 (11718748_at) / RFU TMPRSS4 (11747572_a_at) / Fold change /veh TMPRSS4 (11747572_a_at) / RFU HAMP (11756126_x_at) / Fold change /veh HAMP (11756126_x_at) / RFU RNFT2 (11725882_a_at) / Fold change /veh RNFT2 (11725882_a_at) / RFU NR4A2 (11747474_a_at) / Fold change /veh NR4A2 (11747474_a_at) / RFU ABCC12 (11746883_a_at) / Fold change /veh ABCC12 (11746883_a_at) / RFU TMEM136 (11760407_x_at) / Fold change /veh TMEM136 (11760407_x_at) / RFU CLDN22 /// WWC2 (11732394_at) / Fold change /veh CLDN22 /// WWC2 (11732394_at) / RFU HLA-DPB1 (11760878_x_at) / Fold change /veh HLA-DPB1 (11760878_x_at) / RFU SPINT1 (11716480_a_at) / Fold change /veh SPINT1 (11716480_a_at) / RFU GAP43 (11754022_s_at) / Fold change /veh GAP43 (11754022_s_at) / RFU A4GNT (11735810_at) / Fold change /veh A4GNT (11735810_at) / RFU PRB3 (11715151_x_at) / Fold change /veh PRB3 (11715151_x_at) / RFU TUBB4B (11761932_at) / Fold change /veh TUBB4B (11761932_at) / RFU CAPN14 (11732068_a_at) / Fold change /veh CAPN14 (11732068_a_at) / RFU TMCC2 (11721928_a_at) / Fold change /veh TMCC2 (11721928_a_at) / RFU IRGQ (11745062_a_at) / Fold change /veh IRGQ (11745062_a_at) / RFU FAM174B (11720279_a_at) / Fold change /veh FAM174B (11720279_a_at) / RFU TMPRSS4 (11748680_a_at) / Fold change /veh TMPRSS4 (11748680_a_at) / RFU FAM212B (11763350_a_at) / Fold change /veh FAM212B (11763350_a_at) / RFU PLEKHG5 (11743358_a_at) / Fold change /veh PLEKHG5 (11743358_a_at) / RFU ZSCAN30 (11745921_a_at) / Fold change /veh ZSCAN30 (11745921_a_at) / RFU CMKLR1 (11741424_a_at) / Fold change /veh CMKLR1 (11741424_a_at) / RFU LOC101060620 /// MAPK8IP1 (11723275_at) / Fold change /veh LOC101060620 /// MAPK8IP1 (11723275_at) / RFU SPTSSB (11747773_x_at) / Fold change /veh SPTSSB (11747773_x_at) / RFU PRSS12 (11739890_at) / Fold change /veh PRSS12 (11739890_at) / RFU BIN1 (11741810_x_at) / Fold change /veh BIN1 (11741810_x_at) / RFU WNT11 (11732464_a_at) / Fold change /veh WNT11 (11732464_a_at) / RFU C10orf10 (11716521_a_at) / Fold change /veh C10orf10 (11716521_a_at) / RFU C5orf56 (11738089_at) / Fold change /veh C5orf56 (11738089_at) / RFU CYB561 (11721691_x_at) / Fold change /veh CYB561 (11721691_x_at) / RFU ANKRD19P (11752326_a_at) / Fold change /veh ANKRD19P (11752326_a_at) / RFU OR2T12 /// OR2T33 /// OR2T8 (11738714_s_at) / Fold change /veh OR2T12 /// OR2T33 /// OR2T8 (11738714_s_at) / RFU VCAN (11748164_a_at) / Fold change /veh VCAN (11748164_a_at) / RFU JSRP1 (11732532_at) / Fold change /veh JSRP1 (11732532_at) / RFU KRTAP10-11 (11738290_x_at) / Fold change /veh KRTAP10-11 (11738290_x_at) / RFU MYO3A (11730013_a_at) / Fold change /veh MYO3A (11730013_a_at) / RFU EBF3 (11725865_a_at) / Fold change /veh EBF3 (11725865_a_at) / RFU CAMK2N1 (11719241_x_at) / Fold change /veh CAMK2N1 (11719241_x_at) / RFU C5orf56 (11738088_a_at) / Fold change /veh C5orf56 (11738088_a_at) / RFU OLFML3 (11715873_a_at) / Fold change /veh OLFML3 (11715873_a_at) / RFU LOC100653217 /// NTM (11731650_a_at) / Fold change /veh LOC100653217 /// NTM (11731650_a_at) / RFU MAPK11 (11762145_a_at) / Fold change /veh MAPK11 (11762145_a_at) / RFU FIZ1 (11724087_x_at) / Fold change /veh FIZ1 (11724087_x_at) / RFU OASL (11726364_x_at) / Fold change /veh OASL (11726364_x_at) / RFU SOX15 (11748057_x_at) / Fold change /veh SOX15 (11748057_x_at) / RFU CD79A (11719716_a_at) / Fold change /veh CD79A (11719716_a_at) / RFU HIST1H1D (11736915_at) / Fold change /veh HIST1H1D (11736915_at) / RFU CASKIN2 (11723855_a_at) / Fold change /veh CASKIN2 (11723855_a_at) / RFU LOC730098 (11760151_x_at) / Fold change /veh LOC730098 (11760151_x_at) / RFU OR4N2 (11742367_at) / Fold change /veh OR4N2 (11742367_at) / RFU PRRT2 (11749266_a_at) / Fold change /veh PRRT2 (11749266_a_at) / RFU SNX32 (11753110_a_at) / Fold change /veh SNX32 (11753110_a_at) / RFU CDHR5 (11726645_a_at) / Fold change /veh CDHR5 (11726645_a_at) / RFU RCAN1 (11760418_a_at) / Fold change /veh RCAN1 (11760418_a_at) / RFU FAM167A (11723789_a_at) / Fold change /veh FAM167A (11723789_a_at) / RFU FAM26E (11764081_at) / Fold change /veh FAM26E (11764081_at) / RFU ISYNA1 (11749810_s_at) / Fold change /veh ISYNA1 (11749810_s_at) / RFU ACY1 (11761880_at) / Fold change /veh ACY1 (11761880_at) / RFU 11764098_at / Fold change /veh 11764098_at / RFU SAMD14 (11745864_x_at) / Fold change /veh SAMD14 (11745864_x_at) / RFU NPB (11741838_a_at) / Fold change /veh NPB (11741838_a_at) / RFU TMPRSS6 (11731388_a_at) / Fold change /veh TMPRSS6 (11731388_a_at) / RFU KRTAP10-2 (11738614_at) / Fold change /veh KRTAP10-2 (11738614_at) / RFU ARHGAP8 /// PRR5-ARHGAP8 (11727945_x_at) / Fold change /veh ARHGAP8 /// PRR5-ARHGAP8 (11727945_x_at) / RFU KRTAP5-7 /// NADSYN1 (11734609_at) / Fold change /veh KRTAP5-7 /// NADSYN1 (11734609_at) / RFU RASL12 (11751679_a_at) / Fold change /veh RASL12 (11751679_a_at) / RFU CDKN2B (11736163_a_at) / Fold change /veh CDKN2B (11736163_a_at) / RFU PRF1 (11729649_at) / Fold change /veh PRF1 (11729649_at) / RFU, ZNF638 /// ZNF638-IT1 / Fold change vs veh, ZNF638 /// ZNF638-IT1 / RFU, PANK3 / Fold change vs veh, PANK3 / RFU, SH3YL1 / Fold change vs veh, SH3YL1 / RFU, ZEB2 / Fold change vs veh, ZEB2 / RFU, NRIP1 / Fold change vs veh, NRIP1 / RFU, PTTG1IP / Fold change vs veh, PTTG1IP / RFU, CAPN2 / Fold change vs veh, CAPN2 / RFU, MED14 / Fold change vs veh, MED14 / RFU, SNORA58 / Fold change vs veh, SNORA58 / RFU, C1orf63 / Fold change vs veh, C1orf63 / RFU, LRRFIP1 / Fold change vs veh, LRRFIP1 / RFU, NDUFAF7 / Fold change vs veh, NDUFAF7 / RFU, SLC12A2 / Fold change vs veh, SLC12A2 / RFU, IBTK / Fold change vs veh, IBTK / RFU, ESF1 / Fold change vs veh, ESF1 / Fold change vs veh, TMEM50B / RFU, TAOK1 / Fold change vs veh, TAOK1 / RFU, ACBD3 / Fold change vs veh, ACBD3 / RFU, TMA16 / Fold change vs veh, TMA16 / RFU, RWDD3 / Fold change vs veh, RWDD3 / RFU, BCAT1 / Fold change vs veh, BCAT1 / RFU, EDEM3 / Fold change vs veh, EDEM3 / RFU, TMEM33 / Fold change vs veh, TMEM33 / RFU, WDR75 / Fold change vs veh, WDR75 / RFU, AHCTF1 / Fold change vs veh, AHCTF1 / RFU, TFRC / Fold change vs veh, TFRC / RFU, ZDHHC17 / Fold change vs veh, ZDHHC17 / RFU, NOM1 / Fold change vs veh, NOM1 / RFU, ARL8B / Fold change vs veh, ARL8B / RFU, ZBTB11 / Fold change vs veh, ZBTB11 / RFU, TAMM41 / Fold change vs veh, TAMM41 / RFU, KIAA1704 /// LOC100996395 / Fold change vs veh, KIAA1704 /// LOC100996395 / RFU, ING1 / Fold change vs veh, ING1 / RFU, TRMT61B / Fold change vs veh, TRMT61B / RFU, FUBP3 / Fold change vs veh, FUBP3 / RFU, TP53 / Fold change vs veh, TP53 / RFU, TNKS2 / Fold change vs veh, TNKS2 / RFU, ZFP14 / Fold change vs veh, ZFP14 / RFU, ACTR2 / Fold change vs veh, ACTR2 / RFU, PPP3R1 / Fold change vs veh, PPP3R1 / RFU, PIK3R1 / Fold change vs veh, PIK3R1 / RFU, HNRNPA1 / Fold change vs veh, HNRNPA1 / RFU, RNF170 / Fold change vs veh, RNF170 / RFU, ZNF28 / Fold change vs veh, ZNF28 / RFU, RNGTT / Fold change vs veh, RNGTT / RFU, OGT / Fold change vs veh, OGT / RFU, BRD1 / Fold change vs veh, BRD1 / RFU, MARS / Fold change vs veh, MARS / RFU, ZNF655 / Fold change vs veh, ZNF655 / RFU, FAHD1 / Fold change vs veh, FAHD1 / RFU, BDP1 / Fold change vs veh, BDP1 / RFU, LRRCC1 / Fold change vs veh, LRRCC1 / RFU, ARID1A / Fold change vs veh, ARID1A / RFU, ZNF146 / Fold change vs veh, ZNF146 / RFU, ZNF330 / Fold change vs veh, ZNF330 / RFU, GPN3 / Fold change vs veh, GPN3 / RFU, C9orf123 / Fold change vs veh, C9orf123 / RFU, N4BP2L2 / Fold change vs veh, N4BP2L2 / RFU, ARFIP1 / Fold change vs veh, ARFIP1 / RFU, FAM179B / Fold change vs veh, FAM179B / RFU, BCL10 / Fold change vs veh, BCL10 / RFU, UHRF1BP1L / Fold change vs veh, UHRF1BP1L / RFU, BET1 / Fold change vs veh, BET1 / RFU, CNOT2 / Fold change vs veh, CNOT2 / RFU, ZNF268 / Fold change vs veh, ZNF268 / Fold change vs veh, ZNF507 / RFU, DGCR2 / Fold change vs veh, DGCR2 / RFU, WDSUB1 / Fold change vs veh, WDSUB1 / Fold change vs veh, HSP90B1 /// MIR3652 / RFU, ADSS / Fold change vs veh, ADSS / RFU, GK / Fold change vs veh, GK / RFU, ZNF148 / Fold change vs veh, ZNF148 / RFU, TAF9 / Fold change vs veh, TAF9 / RFU, SLC1A5 / Fold change vs veh, SLC1A5 / RFU, SLMO2 / Fold change vs veh, SLMO2 / RFU, ABCC4 / Fold change vs veh, ABCC4 / RFU, LOC101060439 /// RAP1B / Fold change vs veh, LOC101060439 /// RAP1B / RFU, RFX7 / Fold change vs veh, RFX7 / RFU, GTPBP10 / Fold change vs veh, GTPBP10 / RFU, CNEP1R1 / Fold change vs veh, CNEP1R1 / RFU, BIVM-ERCC5 /// ERCC5 / Fold change vs veh, BIVM-ERCC5 /// ERCC5 / RFU, ILF3 / Fold change vs veh, ILF3 / RFU 11762660_at / Fold change /veh 11762660_at / RFU VCAN (11757783_s_at) / Fold change /veh VCAN (11757783_s_at) / RFU DDX43 (11728927_at) / Fold change /veh DDX43 (11728927_at) / RFU KRT8 (11758188_x_at) / Fold change /veh KRT8 (11758188_x_at) / RFU NKD1 (11759106_at) / Fold change /veh NKD1 (11759106_at) / RFU SRD5A1 (11742802_a_at) / Fold change /veh SRD5A1 (11742802_a_at) / RFU TPSAB1 /// TPSB2 (11721975_s_at) / Fold change /veh TPSAB1 /// TPSB2 (11721975_s_at) / RFU GSTM3 (11746129_a_at) / Fold change /veh GSTM3 (11746129_a_at) / RFU IL23R (11737362_x_at) / Fold change /veh IL23R (11737362_x_at) / RFU TMEM51 (11727254_a_at) / Fold change /veh TMEM51 (11727254_a_at) / RFU PIWIL2 (11732686_x_at) / Fold change /veh PIWIL2 (11732686_x_at) / RFU ORM1 (11744905_x_at) / Fold change /veh ORM1 (11744905_x_at) / RFU CCDC152 (11743942_at) / Fold change /veh CCDC152 (11743942_at) / RFU ECM1 (11717891_a_at) / Fold change /veh ECM1 (11717891_a_at) / RFU IL23R (11748794_a_at) / Fold change /veh IL23R (11748794_a_at) / RFU TNFAIP8L3 (11732012_x_at) / Fold change /veh TNFAIP8L3 (11732012_x_at) / RFU MBOAT4 (11741988_at) / Fold change /veh MBOAT4 (11741988_at) / RFU 11764193_at / Fold change /veh 11764193_at / RFU TMEM53 (11763286_at) / Fold change /veh TMEM53 (11763286_at) / RFU MAGEB2 (11727129_at) / Fold change /veh MAGEB2 (11727129_at) / RFU TMEM200A (11744735_a_at) / Fold change /veh TMEM200A (11744735_a_at) / RFU CCDC152 (11751479_a_at) / Fold change /veh CCDC152 (11751479_a_at) / RFU FAM211A (11726209_a_at) / Fold change /veh FAM211A (11726209_a_at) / RFU RGS16 (11746705_a_at) / Fold change /veh RGS16 (11746705_a_at) / RFU VCAN (11755009_s_at) / Fold change /veh VCAN (11755009_s_at) / RFU RHOB (11743442_s_at) / Fold change /veh RHOB (11743442_s_at) / RFU RGS16 (11720943_a_at) / Fold change /veh RGS16 (11720943_a_at) / RFU RGS16 (11720944_at) / Fold change /veh RGS16 (11720944_at) / RFU, VPS4B / Fold change vs veh, VPS4B / RFU, CREB1 / Fold change vs veh, CREB1 / RFU, DNAJC13 / Fold change vs veh, DNAJC13 / RFU, GNAQ / Fold change vs veh, GNAQ / RFU, CDK5R1 / Fold change vs veh, CDK5R1 / RFU, ZRANB3 / Fold change vs veh, ZRANB3 / RFU, CUL4A / Fold change vs veh, CUL4A / RFU, CCNY / Fold change vs veh, CCNY / RFU, UFL1 / Fold change vs veh, UFL1 / RFU, COG3 / Fold change vs veh, COG3 / RFU, DIAPH2 / Fold change vs veh, DIAPH2 / RFU, SKA2 / Fold change vs veh, SKA2 / RFU, AFF3 / Fold change vs veh, AFF3 / RFU, LMF1 / Fold change vs veh, LMF1 / RFU, IPO11 / Fold change vs veh, IPO11 / RFU, DFFB / Fold change vs veh, DFFB / RFU, FOXP1 / Fold change vs veh, FOXP1 / RFU, CARD8 / Fold change vs veh, CARD8 / RFU, STRN3 / Fold change vs veh, STRN3 / RFU, ADK / Fold change vs veh, ADK / RFU, RASSF2 / Fold change vs veh, RASSF2 / RFU, WIPF1 / Fold change vs veh, WIPF1 / RFU, LARP1B / Fold change vs veh, LARP1B / RFU, RASA1 / Fold change vs veh, RASA1 / RFU, RB1 / Fold change vs veh, RB1 / RFU, PPFIA1 / Fold change vs veh, PPFIA1 / RFU, MAT2A / Fold change vs veh, MAT2A / RFU, CCT5 / Fold change vs veh, CCT5 / RFU, WDR92 / Fold change vs veh, WDR92 / RFU, CUX1 / Fold change vs veh, CUX1 / RFU, TTC7A / Fold change vs veh, TTC7A / RFU, TMEM135 / Fold change vs veh, TMEM135 / RFU, DEPTOR / Fold change vs veh, DEPTOR / RFU, CPM / Fold change vs veh, CPM / RFU, DNAJB6 / Fold change vs veh, DNAJB6 / RFU, CACNA2D3 / Fold change vs veh, CACNA2D3 / RFU, DTX4 / Fold change vs veh, DTX4 / RFU, TFCP2 / Fold change vs veh, TFCP2 / RFU, GMCL1 /// GMCL1P1 / Fold change vs veh, GMCL1 /// GMCL1P1 / RFU, AEBP2 / Fold change vs veh, AEBP2 / RFU, SNHG1 /// SNORD22 /// SNORD25 /// SNORD26 /// SNORD27 /// SNORD28 /// SNORD29 /// SNORD31 / Fold change vs veh, SNHG1 /// SNORD22 /// SNORD25 /// SNORD26 /// SNORD27 /// SNORD28 /// SNORD29 /// SNORD31 / Fold change (Aza/veh), C12orf56 (ProbeSet 11735607_a_at) / Fold change (ACY-1035/veh), C12orf56 (ProbeSet 11735607_a_at) / Fold change (Aza/veh), FGFR1OP (ProbeSet 11751329_s_at) / Fold change (ACY-1035/veh), FGFR1OP (ProbeSet 11751329_s_at) / Fold change (Aza/veh), VPS36 (ProbeSet 11739960_a_at) / Fold change (ACY-1035/veh), VPS36 (ProbeSet 11739960_a_at) / RFU SYPL1 (11715823_x_at) / Fold change /veh SYPL1 (11715823_x_at) / RFU IGFBP7 (11715501_s_at) / Fold change /veh IGFBP7 (11715501_s_at) / RFU REEP3 (11722064_at) / Fold change /veh REEP3 (11722064_at) / RFU IGLL1 (11728026_x_at) / Fold change /veh IGLL1 (11728026_x_at): dose or concentration left out as unconfirmed. To be noted: ProbeSet 11734782_x_at; LIST D.

As for `Nc1ncn([C@@H]2O[C@H](CO)[C@@H](O)[C@H]2O)c(=O)n1` [azacitidine], the “RFU, WDR92” value is 49.30 RFU.
